Results as given in paper PMC8317135 (Journal of medicinal chemistry, 2021).
Entries after “also recorded” stand apart in the source; their conditions may differ. Like-named read-outs stand apart in the source and are kept apart here.

Legend:
[1] = test system: eosinophils in the bronchoalveolar lavage fluid (BALF); assay: Ovalbumin/Aspergillus protease mouse model of allergic asthma, BALF leukocytes; type: in vivo; settings: 2 days post-challenge; for eosinophil counts in the BALF / efficacy in asthma model: 20 μmol kg^−1, i.p. prior to allergen challenge
hERG = hERG (Homo sapiens, UniProt Q12809); assay: cell-based
[2] = test system: CCI-induced mechano-allodynia; settings: mouse; cited from earlier work
hP2Y14R [3] = molecular target: T1, hP2Y14R (Homo sapiens, UniProt Q15391); settings: for hP2Y14R affinity in words: hP2Y14R-expressing CHO cells, tracer 2
T1 sequence (Q15391 1-338): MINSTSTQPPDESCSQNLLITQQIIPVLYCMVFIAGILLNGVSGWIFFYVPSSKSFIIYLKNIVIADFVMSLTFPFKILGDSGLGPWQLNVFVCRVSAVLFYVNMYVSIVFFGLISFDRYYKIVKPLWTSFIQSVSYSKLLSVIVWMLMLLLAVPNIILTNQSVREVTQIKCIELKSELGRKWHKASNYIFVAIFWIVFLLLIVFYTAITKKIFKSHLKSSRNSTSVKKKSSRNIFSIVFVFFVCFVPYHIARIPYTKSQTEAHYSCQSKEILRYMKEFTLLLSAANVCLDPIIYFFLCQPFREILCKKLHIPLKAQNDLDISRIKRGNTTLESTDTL

[4] = test system: 46 receptors and channels; assay: PDSP off-target radioligand binding screen; settings: radioligand binding at 46 receptors and channels
hP2Y14R [5] = molecular target: T1, hP2Y14R; assay: cell-based; settings: IC50 / affinity at hP2Y14R (μM), hP2Y14R-expressing CHO cells, tracer 2
[6] = Lipophilicity based on HPLC retention time; type: physicochemical; settings: relative to 1a
DOR (δ-opioid receptor) = DOR (δ-opioid receptor) (Homo sapiens, UniProt P41143); assay: PDSP radioligand binding, DOR
[7] = not given; remark: listed apart in the source
[8] = test system: CCI-induced mechano-allodynia; assay: Chronic constriction injury; settings: mouse
in vivo = settings: male, Wistar, rat
[9] = test system: porcine liver esterase (PLE); assay: Esterase cleavage of prodrugs by porcine liver esterase; settings: for percent cleavage at 72 h: pH 7.3 aqueous medium, PLE, 37 °C; for half-life at 1 mM: pig, pH 7.3
[10] = male Wistar rats, 1.0 mg kg^−1 i.p.
[11] = male Wistar rats, 3.0 mg kg^−1 i.p.
[12] = male Wistar rats, 10 mg kg^−1 i.p.

Chain of DOR (δ-opioid receptor) (P41143 whole entry): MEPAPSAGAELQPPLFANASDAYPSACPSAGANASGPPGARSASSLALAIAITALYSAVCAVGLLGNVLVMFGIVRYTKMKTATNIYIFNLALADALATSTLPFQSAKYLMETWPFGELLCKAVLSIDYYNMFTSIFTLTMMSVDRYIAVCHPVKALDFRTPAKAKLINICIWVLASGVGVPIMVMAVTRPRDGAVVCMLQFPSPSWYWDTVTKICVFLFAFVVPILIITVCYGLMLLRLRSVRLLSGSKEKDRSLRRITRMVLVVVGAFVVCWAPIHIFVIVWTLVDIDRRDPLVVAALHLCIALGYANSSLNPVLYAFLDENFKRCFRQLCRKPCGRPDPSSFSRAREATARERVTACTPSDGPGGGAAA
Chain of hERG (Q12809 whole entry): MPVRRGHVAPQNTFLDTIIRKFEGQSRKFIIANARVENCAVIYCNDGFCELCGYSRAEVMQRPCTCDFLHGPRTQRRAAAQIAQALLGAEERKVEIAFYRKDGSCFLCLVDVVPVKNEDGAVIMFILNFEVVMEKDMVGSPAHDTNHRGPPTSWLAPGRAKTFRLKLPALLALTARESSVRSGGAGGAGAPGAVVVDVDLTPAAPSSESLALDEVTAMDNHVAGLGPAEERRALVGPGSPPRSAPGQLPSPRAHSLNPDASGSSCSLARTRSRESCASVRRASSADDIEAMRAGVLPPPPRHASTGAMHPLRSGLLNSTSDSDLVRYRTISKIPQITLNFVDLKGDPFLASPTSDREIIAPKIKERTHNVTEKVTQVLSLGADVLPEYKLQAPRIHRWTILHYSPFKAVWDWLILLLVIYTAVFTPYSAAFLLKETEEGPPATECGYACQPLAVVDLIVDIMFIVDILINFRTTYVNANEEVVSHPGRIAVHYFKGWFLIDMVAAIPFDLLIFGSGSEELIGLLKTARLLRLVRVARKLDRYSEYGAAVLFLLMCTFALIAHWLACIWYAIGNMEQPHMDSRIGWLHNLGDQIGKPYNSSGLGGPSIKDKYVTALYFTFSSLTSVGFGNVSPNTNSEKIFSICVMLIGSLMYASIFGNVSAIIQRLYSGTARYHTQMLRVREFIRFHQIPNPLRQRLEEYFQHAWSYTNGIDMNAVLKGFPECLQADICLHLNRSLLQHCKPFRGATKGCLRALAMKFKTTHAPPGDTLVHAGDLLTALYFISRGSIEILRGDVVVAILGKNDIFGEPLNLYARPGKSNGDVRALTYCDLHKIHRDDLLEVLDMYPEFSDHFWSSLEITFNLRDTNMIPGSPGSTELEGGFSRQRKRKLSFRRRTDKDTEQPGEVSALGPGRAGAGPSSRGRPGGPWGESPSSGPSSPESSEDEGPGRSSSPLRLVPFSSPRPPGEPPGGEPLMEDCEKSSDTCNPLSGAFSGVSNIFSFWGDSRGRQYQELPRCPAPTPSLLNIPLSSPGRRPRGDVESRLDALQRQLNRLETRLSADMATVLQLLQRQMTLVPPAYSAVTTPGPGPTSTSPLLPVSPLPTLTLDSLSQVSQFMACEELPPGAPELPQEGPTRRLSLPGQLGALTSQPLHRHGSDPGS

SMILES: O=C(O)c1cc(-c2ccc(C3CCNCC3)cc2)c2ccc(-c3ccc(C(F)(F)F)cc3)cc2c1 [Compound 1a, 4-[4-(4-piperidinyl)phenyl]-7-[4-(trifluoromethyl)phenyl]-2-naphthalene-carboxylic acid]
- solubility in DMSO at 20 mg mL^−1: could not dissolve
- eosinophil counts in the BALF / efficacy in asthma model [1]: reduced
- IC50 (hERG): > 30 µM
- effect on chronic pain in the CCI model [2]: effective in reducing chronic pain

SMILES: CC(=O)N1CCC(c2ccc(-c3cc(C(=O)O)cc4cc(-c5ccc(C(F)(F)F)cc5)ccc34)cc2)CC1 [Compound 1b, reference compound]
- eosinophil counts in the BALF / efficacy in asthma model [1]: no significant reduction
- effect on chronic pain in the CCI model [2]: effective in reducing chronic pain

SMILES: CC(=O)Nc1ccc(-c2cc(C(=O)O)cc(-n3cc(-c4ccc(C(F)(F)F)cc4)nn3)c2)cc1 [Compound 8, 4′-Acetamido-5-(4-(4-(trifluoromethyl)phenyl)-1H-1,2,3-triazol-1-yl)-[1,1′-biphenyl]-3-carboxylic Acid]
- hP2Y14R affinity in words (hP2Y14R [3]): submicromolar affinity

SMILES: O=C(O)c1cc(-c2ccc(NC(=O)C3CCNCC3)cc2)cc(-n2cc(-c3ccc(C(F)(F)F)cc3)nn2)c1 [Compound 11, 4′-(Piperidine-4-carboxamido)-5-(4-(4-(trifluoromethyl)phenyl)-1H-1,2,3-triazol-1-yl)-[1,1′-biphenyl]-3-carboxylic Acid]
- solubility in aqueous medium in words (Aqueous solubility): poorly soluble in aqueous medium

SMILES: CC(C)(C)OC(=O)N1CCC(C(=O)Nc2ccc(-c3cc(C(=O)O)cc(-n4cc(-c5ccc(C(F)(F)F)cc5)nn4)c3)cc2)CC1 [Compound 12, 4′-(1-(tert-Butoxycarbonyl)piperidine-4-carboxamido)-5-(4-(4-(trifluoromethyl)phenyl)-1H-1,2,3-triazol-1-yl)-[1,1′-biphenyl]-3-carboxylic Acid]
- fold weaker in binding than the parent amines (hP2Y14R [3]; N-Boc protected forms compared to 11 and 18): > 100 fold

SMILES: O=C(O)c1ccc(-c2cc(C(=O)O)cc(-n3cc(-c4ccc(C(F)(F)F)cc4)nn3)c2)cc1 [Compound 13, 5-(4-(4-(Trifluoromethyl)phenyl)-1H-1,2,3-triazol-1-yl)-[1,1′-bi-phenyl]-3,4′-dicarboxylic Acid]
- off-target interactions in the standard PDSP screen [4]: did not show any off-target interactions
- IC50 (hP2Y14R [5]): ~0.6 µM

SMILES: NCCCNC(=O)c1ccc(-c2cc(C(=O)O)cc(-n3cc(-c4ccc(C(F)(F)F)cc4)nn3)c2)cc1 [Compound 14, 4′-((3-Aminopropyl)carbamoyl)-5-(4-(4-(trifluoromethyl)-phenyl)-1H-1,2,3-triazol-1-yl)-[1,1′-biphenyl]-3-carboxylic Acid]
- fold lower affinity than thienyl derivative 4 (hP2Y14R [3]; compared to 4): 3.5 fold
- hP2Y14R affinity in words (hP2Y14R [3]): submicromolar affinity

SMILES: NCCCc1ccc(-c2cc(C(=O)O)cc(-n3cc(-c4ccc(C(F)(F)F)cc4)nn3)c2)cc1 [Compound 18, 4′-(3-Aminopropyl)-5-(4-(4-(trifluoromethyl)phenyl)-1H-1,2,3-triazol-1-yl)-[1,1′-biphenyl]-3-carboxylic Acid]
- off-target interactions in the standard PDSP screen [4]: did not show any off-target interactions
- hP2Y14R affinity in words (hP2Y14R [3]): submicromolar affinity

SMILES: NCC#Cc1ccc(-c2cc(C(=O)O)cc(-n3cc(-c4ccc(C(F)(F)F)cc4)nn3)c2)cc1 [Compound 19, 4′-(3-Aminoprop-1-yn-1-yl)-5-(4-(4-(trifluoromethyl)phenyl)-1H-1,2,3-triazol-1-yl)-[1,1′-biphenyl]-3-carboxylic Acid]
- off-target interactions in the standard PDSP screen [4]: did not show any off-target interactions
- hP2Y14R affinity in words (hP2Y14R [3]): submicromolar affinity

SMILES: O=C(O)c1cc(-c2ccc(CCCCO)cc2)cc(-n2cc(-c3ccc(C(F)(F)F)cc3)nn2)c1 [Compound 21, 4′-(4-Hydroxybutyl)-5-(4-(4-(trifluoromethyl)phenyl)-1H-1,2,3-triazol-1-yl)-[1,1′-biphenyl]-3-carboxylic Acid]
- hP2Y14R affinity in words (hP2Y14R [3]): bound weakly

SMILES: O=C(O)c1cc(-c2ccc(-c3cc(CO)on3)cc2)cc(-n2cc(-c3ccc(C(F)(F)F)cc3)nn2)c1 [Compound 29, 4′-(5-(Hydroxymethyl)isoxazol-3-yl)-5-(4-(4-(trifluoromethyl)-phenyl)-1H-1,2,3-triazol-1-yl)-[1,1′-biphenyl]-3-carboxylic Acid]
- hydrophilicity gain compared to 1a [6]: −1.06 cLogP units
- hP2Y14R affinity in words (hP2Y14R [3]): submicromolar affinity
- Ki (DOR (δ-opioid receptor)): 6.9 ± 1.9 µM

SMILES: O=C(O)c1cc(-c2ccc(-c3nnn[nH]3)cc2)cc(-n2cc(-c3ccc(C(F)(F)F)cc3)nn2)c1 [Compound 31, 4′-(1H-Tetrazol-5-yl)-5-(4-(4-(trifluoromethyl)phenyl)-1H-1,2,3-triazol-1-yl)-[1,1′-biphenyl]-3-carboxylic Acid]
- hP2Y14R affinity in words (hP2Y14R [3]): submicromolar affinity

SMILES: O=C(O)c1cc(-c2ccc(-c3cc(CO)on3)cc2)c2ccc(-c3ccc(C(F)(F)F)cc3)cc2c1 [Compound 32, 4-(4-(5-(Hydroxymethyl)isoxazol-3-yl)phenyl)-7-(4-(trifluoromethyl)phenyl)-2-naphthoic Acid]
- hydrophilicity gain compared to 1a [6]: −0.80 cLogP units
- clinical signs ([7]; all rat groups at all time points (up to 24 h)): normal
- Kel (1 h^−1) ([7]; male Wistar rats, 0.5 mg kg^−1 i.v.): 1.01 1 h^−1
- Cl [7, 10]: 1430 mL/h/kg
- Kel (1 h^−1) [7, 10]: 0.096 1 h^−1
- Vd (mL kg^−1) [7, 10]: 14,900 mL kg^−1
- Cl [7, 11]: 1420 mL/h/kg
- Kel (1 h^−1) [7, 11]: 0.148 1 h^−1
- Vd [7, 11]: 9570 mL/kg
- Cl [7, 12]: 2030 mL/h/kg
- Kel (1 h^−1) [7, 12]: 0.233 1 h^−1
- Vd [7, 12]: 8730 mL/kg
- peak concentration ([7]; rat, 10 mg kg^−1, i.p., 4 h post-injection): 1.61 µM
- eosinophil counts in the BALF / efficacy in asthma model [1]: no significant reduction
- maximal reversal of CCI-induced mechano-allodynia ([8]; 10 μmol kg^−1 (4.9 mg kg^−1), i.p., 1 h post-injection): 71.0 ± 17.4%
- side effects ([8]; 10 μmol kg^−1, i.p.): No side effects were evident
- protection against CCI-induced mechano-allodynia at 3 or 5 h ([8]; 10 μmol kg^−1, i.p., 3 or 5 h post-injection): not statistically significant
- AUC(0-t) at 24 h (in vivo; ip, 1 mg/kg): 650 ng·h/mL
- Cmax at 24 h (in vivo; ip, 1 mg/kg): 88.4 ng/mL
- half-life (in vivo; ip, 1 mg/kg): 434 min
- AUC(0-inf) at 24 h (in vivo; ip, 3 mg/kg): 2120 ng·h/mL
- AUC(0-t) at 24 h (in vivo; ip, 3 mg/kg): 2060 ng·h/mL
- Cmax at 24 h (in vivo; ip, 3 mg/kg): 315 ng/mL
- half-life at 24 h (in vivo; ip, 3 mg/kg): 281 min
- AUC(0-inf) at 24 h (in vivo; ip, 10 mg/kg): 4920 ng·h/mL
- AUC(0-t) at 24 h (in vivo; ip, 10 mg/kg): 4900 ng·h/mL
- Cmax at 24 h (in vivo; ip, 10 mg/kg): 786 ng/mL
- half-life at 24 h (in vivo; ip, 10 mg/kg): 179 min
- AUC(0-inf) at 24 h (in vivo; iv, 0.5 mg/kg): 238 ng·h/mL
- AUC(0-t) at 24 h (in vivo; iv, 0.5 mg/kg): 234 ng·h/mL
- Cmax at 24 h (in vivo; iv, 0.5 mg/kg): 359 ng/mL
- Vd at 24 h (in vivo; iv, 0.5 mg/kg): 2.09 L/kg
- clearance at 24 h (in vivo; iv, 0.5 mg/kg): 35.2 mL/min/kg
- half-life at 24 h (in vivo; iv, 0.5 mg/kg): 41.3 min

SMILES: CN(C)C(=O)COC(=O)c1cc(-c2ccc(C3CCNCC3)cc2)cc(-n2cc(-c3ccc(C(F)(F)F)cc3)nn2)c1 [Compound 37a, 2-(Dimethylamino)-2-oxoethyl 4′-(Piperidin-4-yl)-5-(4-(4-(trifluoromethyl)phenyl)-1H-1,2,3-triazol-1-yl)-[1,1′-biphenyl]-3-carboxylate]
- number of off-target interactions in the μM range [4]: 18
- off-target interactions in the standard PDSP screen [4]: promiscuous in off-target binding
- eosinophil counts in the BALF / efficacy in asthma model [1]: lack of in vivo activity
- lymphocyte count in the BALF ([1]; 20 μmol kg^−1, i.p.): trended higher than in a vehicle control

SMILES: CN(C)C(=O)COC(=O)c1cc(-c2ccc(-c3cc(CO)on3)cc2)c2ccc(-c3ccc(C(F)(F)F)cc3)cc2c1 [Compound 37b, 2-(Dimethylamino)-2-oxoethyl 4-(4-(5-(Hydroxymethyl)isoxazol-3-yl)phenyl)-7-(4-(trifluoromethyl)phenyl)-2-naphthoate]
- eosinophil counts in the BALF / efficacy in asthma model [1]: significantly reduced eosinophils; also recorded: highly efficacious
- percent cleavage at 72 h [9]: < 50%
- half-life at 1 mM [9]: > 72 min

SMILES: CC(=O)N1CCC(c2ccc(-c3cc(C(=O)OCC(=O)N(C)C)cc4cc(-c5ccc(C(F)(F)F)cc5)ccc34)cc2)CC1 [Compound 37c, 2-(Dimethylamino)-2-oxoethyl 4-(4-(1-Acetylpiperidin-4-yl)-phenyl)-7-(4-(trifluoromethyl)phenyl)-2-naphthoate]
- eosinophil counts in the BALF / efficacy in asthma model [1]: significantly reduced eosinophils; also recorded: highly efficacious
- percent cleavage at 72 h [9]: < 50%
- half-life at 1 mM [9]: > 72 min
